# Source: publication PMC2794843, “Differential regulation of muscarinic M1 receptors by orthosteric and allosteric ligands” (BMC Pharmacology, 2009)
# Assays:
# [1] = target: T1, human muscarinic M1 receptor (hM1) (Homo sapiens, UniProt P11229); experiment: R-SAT, transiently transfected NIH-3T3 cells; type: cell-based; conditions: for pEC50: agonist
# T1 construct: gene CHRM1; full-length hM1
# T1 sequence (P11229 1-460): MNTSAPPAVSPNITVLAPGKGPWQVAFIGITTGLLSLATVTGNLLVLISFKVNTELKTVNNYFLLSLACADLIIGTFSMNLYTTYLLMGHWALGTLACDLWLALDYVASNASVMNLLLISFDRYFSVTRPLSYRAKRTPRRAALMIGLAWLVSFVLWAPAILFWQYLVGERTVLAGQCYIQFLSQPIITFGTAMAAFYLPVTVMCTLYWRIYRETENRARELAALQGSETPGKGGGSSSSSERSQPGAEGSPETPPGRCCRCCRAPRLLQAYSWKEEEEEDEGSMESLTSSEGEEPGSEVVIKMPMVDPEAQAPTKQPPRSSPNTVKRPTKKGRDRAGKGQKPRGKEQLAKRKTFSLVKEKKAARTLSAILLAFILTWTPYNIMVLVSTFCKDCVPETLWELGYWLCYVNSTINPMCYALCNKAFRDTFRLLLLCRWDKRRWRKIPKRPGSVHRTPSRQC
# Description: R-SAT, transiently transfected NIH-3T3 cells on human muscarinic M1 receptor (hM1)
# [2] = target: T1, human muscarinic M1 receptor (hM1); experiment: PI hydrolysis, CHO-M1 cells; type: cell-based; conditions: partial agonist; 60 min, 37°C, 10 mM LiCl; allosteric component
# Description: PI hydrolysis, CHO-M1 cells on human muscarinic M1 receptor (hM1)
compound,measurement,setting,value
"O=C1COc2cc(F)ccc2N1CCCN1CCC(OCC2CC2)CC1 [AC-262469, 4-[3-(4-cyclopropylmethyloxypiperidin-1-yl)propyl]-7-fluoro-2H-benzo[b][1, 4]oxazin-3-one]",pEC50,[1],7.2 ± 0
Clc1ccc2c(c1)N=C(N1CCNCC1)c1ccccc1N2 [NDMC],PI Hydrolysis / pEC50,[2],7.1 ± 0.4
"CCCCC1CCN(CCCN2C(=O)COc3cc(Cl)ccc32)CC1 [AC-260515, 4-[3-(4-butyl-piperidin-1-yl)-propyl]-7-chloro-2H-benzo[b][1, 4]oxazin-3-one]",EC50,[1],251 nM
"CCCCC1CCN(CCCN2C(=O)COc3cc(F)ccc32)CC1 [AC-260977, (R)-4-[3-(4-butylpiperidin-1-yl)propyl]-7-fluoro-2H-benzo[b][1, 4]oxazin-3-one]",pEC50,[1],7.7 ± 0.1
